According to paper PMC5053890 (Bioorganic & medicinal chemistry, 2016):

Target: T1, GVIA iPLA2 (Homo sapiens, UniProt O60733)
T1 sequence (O60733 1-806): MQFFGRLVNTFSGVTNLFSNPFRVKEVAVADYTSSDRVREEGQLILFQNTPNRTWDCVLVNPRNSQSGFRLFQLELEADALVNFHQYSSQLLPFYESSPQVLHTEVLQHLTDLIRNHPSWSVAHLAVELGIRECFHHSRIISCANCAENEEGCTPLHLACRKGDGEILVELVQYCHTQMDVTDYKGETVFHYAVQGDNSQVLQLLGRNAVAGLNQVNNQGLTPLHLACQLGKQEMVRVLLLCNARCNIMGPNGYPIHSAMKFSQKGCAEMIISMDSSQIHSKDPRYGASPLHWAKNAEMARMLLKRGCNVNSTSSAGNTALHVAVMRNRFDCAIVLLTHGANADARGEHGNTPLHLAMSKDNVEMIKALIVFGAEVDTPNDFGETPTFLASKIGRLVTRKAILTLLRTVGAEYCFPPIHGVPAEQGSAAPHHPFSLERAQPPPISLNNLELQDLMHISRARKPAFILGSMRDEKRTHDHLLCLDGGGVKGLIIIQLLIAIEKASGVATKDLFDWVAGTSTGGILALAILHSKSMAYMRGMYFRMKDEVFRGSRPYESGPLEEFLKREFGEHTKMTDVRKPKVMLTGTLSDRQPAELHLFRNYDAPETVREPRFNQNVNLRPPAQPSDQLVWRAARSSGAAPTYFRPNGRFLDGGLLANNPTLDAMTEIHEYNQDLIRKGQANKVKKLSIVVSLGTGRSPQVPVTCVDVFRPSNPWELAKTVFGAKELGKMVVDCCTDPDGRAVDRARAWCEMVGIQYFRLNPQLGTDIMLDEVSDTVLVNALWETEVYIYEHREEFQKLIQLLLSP
Experiment: mixed micelle modified Dole assay, GVIA iPLA2
Assay type: biochemical
Details: read-out: IC50 (converted from XI(50)); 0.091 mole fraction corresponds to 50 μM

CCCCCCCCSCC(=O)C(F)(F)F [Compound 3]
IC50: 110 nM
